Data published in patent publication US12552775B2, “Compounds and uses thereof” (Foghorn Therapeutics Inc., priority 2020, dated 2026).

Columns and labels:
HiBit-BRM fusion protein = molecular target: T1, HiBit-BRM fusion protein (Homo sapiens, UniProt P51531); test: HiBiT-BRM cell-based degradation assay (Nano-Glo HiBiT Lytic Detection, 24 h); settings: stable HeLa cell line expressing HiBiT-BRM, top dose 30 μM
T1 construct: expressed in transfected cells
Procedure: (§1) Procedure: A stable HeLa cell line expressing HiBiT-BRM was generated. On day 0, 5000 cells were seeded in 40 μL of media into each well of 384-well cell culture plates. On day 1, cells were treated with 120 nL DMSO or 120 nL of 3-fold serially DMSO-diluted compounds (10 points in duplicate with 30 μM as final top dose). Subsequently plates were incubated for 24 h in a standard tissue culture incubator and equilibrated at room temperature for 15 minutes. Nano-Glo HiBiT Lytic Detection System (Promega N3050) reagent was freshly prepared and 20 ul was added to each well. Upon addition of this LgBit-containing reagent, the HiBiT and LgBiT proteins associate to form the luminescent NanoBiT luciferase. The plates were shaken for 10 minutes at room temperature and the bioluminescence read using an EnVision plate reader (PerkinElmer).
(§2) The degradation % was calculated using the following formula: % degradation=100%−100%×(Lumsample−LumLC)/(LumHC−LumLC). DMSO treated cells are employed as High Control (HC) and 2 μM of a known BRM/BRG1 degrader standard treated cells are employed as Low Control (LC).

[1] = molecular target: T2, HiBit-BRG1 fusion protein (Homo sapiens, UniProt P51532); test: HiBiT-BRG1 cell-based degradation assay (Nano-Glo HiBiT Lytic Detection, 24 h); settings: stable HeLa cell line expressing HiBit-BRG1 and LgBit, top dose 30 μM, read-out: BRG1 HiBit Degradation Maximum (%)
T2 construct: expressed in transfected cells
T2 sequence (P51532 whole entry, the tested form may be a part): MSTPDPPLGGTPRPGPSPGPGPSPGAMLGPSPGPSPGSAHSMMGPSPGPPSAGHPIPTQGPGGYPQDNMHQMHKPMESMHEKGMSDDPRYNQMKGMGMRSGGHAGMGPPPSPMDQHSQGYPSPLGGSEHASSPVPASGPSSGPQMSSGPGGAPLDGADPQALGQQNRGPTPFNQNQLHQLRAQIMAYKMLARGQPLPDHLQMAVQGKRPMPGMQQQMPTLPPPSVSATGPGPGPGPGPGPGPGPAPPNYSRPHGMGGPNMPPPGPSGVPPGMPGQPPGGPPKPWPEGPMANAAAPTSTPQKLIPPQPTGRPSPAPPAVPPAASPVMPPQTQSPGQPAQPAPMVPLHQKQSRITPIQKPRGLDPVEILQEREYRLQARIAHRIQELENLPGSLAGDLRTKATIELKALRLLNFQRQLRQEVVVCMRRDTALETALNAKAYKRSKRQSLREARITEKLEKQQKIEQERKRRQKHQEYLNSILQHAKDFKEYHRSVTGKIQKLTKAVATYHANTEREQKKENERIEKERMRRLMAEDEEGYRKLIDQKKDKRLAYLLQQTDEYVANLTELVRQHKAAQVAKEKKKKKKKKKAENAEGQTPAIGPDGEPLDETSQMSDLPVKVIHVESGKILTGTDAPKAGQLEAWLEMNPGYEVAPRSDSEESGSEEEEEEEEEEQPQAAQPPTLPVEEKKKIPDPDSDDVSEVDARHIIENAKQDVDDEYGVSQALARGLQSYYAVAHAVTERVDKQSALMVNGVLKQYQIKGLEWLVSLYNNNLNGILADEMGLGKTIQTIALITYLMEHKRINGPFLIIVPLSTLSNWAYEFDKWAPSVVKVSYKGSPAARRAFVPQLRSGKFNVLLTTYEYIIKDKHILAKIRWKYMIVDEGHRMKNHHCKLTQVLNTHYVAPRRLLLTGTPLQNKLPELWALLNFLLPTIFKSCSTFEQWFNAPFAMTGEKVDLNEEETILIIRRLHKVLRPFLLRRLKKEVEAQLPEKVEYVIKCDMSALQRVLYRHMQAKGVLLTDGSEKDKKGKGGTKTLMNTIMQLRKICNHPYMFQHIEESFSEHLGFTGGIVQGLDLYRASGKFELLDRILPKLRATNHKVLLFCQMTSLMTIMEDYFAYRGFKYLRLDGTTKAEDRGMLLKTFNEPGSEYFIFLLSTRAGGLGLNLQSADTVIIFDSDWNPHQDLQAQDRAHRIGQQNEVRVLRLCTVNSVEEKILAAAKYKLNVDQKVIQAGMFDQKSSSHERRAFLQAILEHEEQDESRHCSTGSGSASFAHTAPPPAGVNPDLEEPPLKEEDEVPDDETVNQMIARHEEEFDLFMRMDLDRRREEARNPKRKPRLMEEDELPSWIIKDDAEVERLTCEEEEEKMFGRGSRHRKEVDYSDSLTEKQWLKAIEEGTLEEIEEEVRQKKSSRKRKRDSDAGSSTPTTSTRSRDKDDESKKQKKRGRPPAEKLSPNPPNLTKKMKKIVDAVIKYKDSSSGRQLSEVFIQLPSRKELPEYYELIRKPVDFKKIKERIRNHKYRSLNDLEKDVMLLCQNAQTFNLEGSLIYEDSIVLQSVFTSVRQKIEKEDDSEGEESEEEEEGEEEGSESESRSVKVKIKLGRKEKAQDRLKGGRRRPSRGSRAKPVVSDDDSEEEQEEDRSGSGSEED
Procedure: as §1
For measurement of BRG1 degradation, a stable HeLa cell line expressing HiBit-BRG1 and LgBit was generated. The same protocol as above was then followed.
as §2

T1 sequence (P51531 whole entry, the tested form may be a part): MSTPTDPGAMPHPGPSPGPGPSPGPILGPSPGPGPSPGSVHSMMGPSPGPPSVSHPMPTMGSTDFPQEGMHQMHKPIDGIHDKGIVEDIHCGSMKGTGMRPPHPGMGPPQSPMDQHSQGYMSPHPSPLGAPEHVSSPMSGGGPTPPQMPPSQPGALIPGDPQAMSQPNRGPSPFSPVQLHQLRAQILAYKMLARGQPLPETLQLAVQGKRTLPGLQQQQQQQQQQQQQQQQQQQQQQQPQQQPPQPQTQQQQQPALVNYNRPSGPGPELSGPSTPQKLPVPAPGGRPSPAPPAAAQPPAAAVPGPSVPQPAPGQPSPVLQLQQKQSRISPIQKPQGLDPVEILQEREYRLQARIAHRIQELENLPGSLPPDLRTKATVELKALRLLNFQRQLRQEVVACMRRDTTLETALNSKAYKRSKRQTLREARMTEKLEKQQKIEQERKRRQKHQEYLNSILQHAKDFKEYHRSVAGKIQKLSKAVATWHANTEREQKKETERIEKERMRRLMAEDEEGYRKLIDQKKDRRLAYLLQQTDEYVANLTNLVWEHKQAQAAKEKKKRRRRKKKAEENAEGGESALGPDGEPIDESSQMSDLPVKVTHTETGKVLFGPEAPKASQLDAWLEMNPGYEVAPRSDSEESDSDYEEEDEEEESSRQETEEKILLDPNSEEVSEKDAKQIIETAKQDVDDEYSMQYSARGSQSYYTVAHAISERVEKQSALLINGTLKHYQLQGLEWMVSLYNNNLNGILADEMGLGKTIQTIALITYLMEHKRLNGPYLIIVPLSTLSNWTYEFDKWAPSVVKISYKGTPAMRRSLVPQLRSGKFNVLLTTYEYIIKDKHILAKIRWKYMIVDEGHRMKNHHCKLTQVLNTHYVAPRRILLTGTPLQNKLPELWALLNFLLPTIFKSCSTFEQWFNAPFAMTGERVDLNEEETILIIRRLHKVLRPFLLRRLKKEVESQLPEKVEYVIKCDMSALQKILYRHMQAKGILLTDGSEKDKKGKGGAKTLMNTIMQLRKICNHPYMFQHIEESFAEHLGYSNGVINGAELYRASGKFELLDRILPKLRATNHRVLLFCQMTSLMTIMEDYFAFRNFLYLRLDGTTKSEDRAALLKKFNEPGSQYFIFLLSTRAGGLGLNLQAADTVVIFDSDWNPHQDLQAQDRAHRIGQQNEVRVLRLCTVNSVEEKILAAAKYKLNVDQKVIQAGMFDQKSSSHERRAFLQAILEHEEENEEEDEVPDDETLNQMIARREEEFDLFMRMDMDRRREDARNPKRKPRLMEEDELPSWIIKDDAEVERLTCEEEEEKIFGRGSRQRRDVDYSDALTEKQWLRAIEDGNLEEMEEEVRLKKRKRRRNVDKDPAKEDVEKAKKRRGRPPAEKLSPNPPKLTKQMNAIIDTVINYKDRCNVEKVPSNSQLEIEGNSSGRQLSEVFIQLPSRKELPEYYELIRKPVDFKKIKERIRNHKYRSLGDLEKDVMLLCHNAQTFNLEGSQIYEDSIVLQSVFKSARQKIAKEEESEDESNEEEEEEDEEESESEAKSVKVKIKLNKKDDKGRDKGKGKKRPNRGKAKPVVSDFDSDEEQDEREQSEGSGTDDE

Structure (SMILES)	BRM HiBit Degradation Maximum (%) (HiBit-BRM fusion protein)	Dmax [1] [%]
Nc1nnc(-c2ccccc2O)cc1OCCC12CC(NC(=O)CCCCOc3cccc4c3C(=O)N(C3CCC(=O)NC3=O)C4=O)(C1)C2 (centres unmarked) [Compound 19, N-(3-(2-((3-amino-6-(2-hydroxyphenyl)pyridazin-4-yl)oxy)ethyl)bicyclo[1.1.1]pentan-1-yl)-5-((2-(2,6-dioxopiperidin-3-yl)-1,3-dioxoisoindolin-4-yl)oxy)pentanamide]	C (“C” indicates maximum degradation < 50%)	< 50
Nc1nnc(-c2ccccc2O)cc1OCCC12CC(NC(=O)CCOCCOCCNc3ccc4c(c3)C(=O)N(C3CCC(=O)NC3=O)C4=O)(C1)C2 (centres unmarked) [Compound 22, N-[3-(2-[[3-amino-6-(2-hydroxyphenyl)pyridazin-4-yl]oxy]ethyl)bicyclo[1.1.1]pentan-1-yl]-3-[2-(2-[[2-(2,6-dioxopiperidin-3-yl)-1,3-dioxoisoindol-5-yl]amino]ethoxy)ethoxy]propanamide]	C (“C” indicates maximum degradation < 50%)	< 50
Cc1ncsc1-c1ccc(CNC(=O)[C@@H]2C[C@@H](O)CN2C(=O)[C@@H](NC(=O)CCCCCCCCCCC(=O)NC23CC(CCOc4cc(-c5ccccc5O)nnc4N)(C2)C3)C(C)(C)C)cc1 [Compound 47, N1-(3-(2-((3-amino-6-(2-hydroxyphenyl)pyridazin-4-yl)oxy)ethyl)bicyclo[1.1.1]pentan-1-yl)-N12-((S)-1-((2S,4R)-4-hydroxy-2-((4-(4-methylthiazol-5-yl)benzyl)carbamoyl)pyrrolidin-1-yl)-3,3-dimethyl-1-oxobutan-2-yl)dodecanediamide]	B (“B” indicates maximum degradation ≥ 50%)	< 50
Nc1nnc(-c2ccccc2O)cc1OCCC12CC(NC(=O)CCCCCCCCCCNc3ccc4c(c3)C(=O)N(C3CCC(=O)NC3=O)C4=O)(C1)C2 (centres unmarked) [Compound 26, N-[3-(2-[[3-amino-6-(2-hydroxyphenyl)pyridazin-4-yl]oxy]ethyl)bicyclo[1.1.1]pentan-1-yl]-11-[[2-(2,6-dioxopiperidin-3-yl)-1,3-dioxoisoindol-5-yl]amino]undecanamide]	C (“C” indicates maximum degradation < 50%)	< 50
Nc1nnc(-c2ccccc2O)cc1OCC12CC(C(=O)N3CCC(CCN4CCN(c5ccc6c(c5)C(=O)N(C5CCC(=O)NC5=O)C6=O)CC4)CC3)(C1)C2 (centres unmarked) [Compound 94, 5-(4-(2-(1-(3-(((3-amino-6-(2-hydroxyphenyl)pyridazin-4-yl)oxy)methyl)bicyclo[1.1.1]pentane-1-carbonyl)piperidin-4-yl)ethyl)piperazin-1-yl)-2-(2,6-dioxopiperidin-3-yl)isoindoline-1,3-dione]	B (“B” indicates maximum degradation ≥ 50%)	< 50
Nc1nnc(-c2ccccc2O)cc1OCC12CC(C(=O)N3CCN(CCOc4ccc5c(c4)C(=O)N(C4CCC(=O)NC4=O)C5=O)CC3)(C1)C2 (centres unmarked) [Compound 103, 5-(2-(4-(3-(((3-amino-6-(2-hydroxyphenyl)pyridazin-4-yl)oxy)methyl)bicyclo[1.1.1]pentane-1-carbonyl)piperazin-1-yl)ethoxy)-2-(2,6-dioxopiperidin-3-yl)isoindoline-1,3-dione; formic acid]	C (“C” indicates maximum degradation < 50%)	< 50
Nc1nnc(-c2ccccc2O)cc1OCC12CC(C(=O)NCCOc3cccc(OCCNc4cccc5c4C(=O)N(C4CCC(=O)NC4=O)C5=O)c3)(C1)C2 (centres unmarked) [Compound 83, 3-(((3-amino-6-(2-hydroxyphenyl)pyridazin-4-yl)oxy)methyl)-N-(2-(3-(2-((2-(2,6-dioxopiperidin-3-yl)-1,3-dioxoisoindolin-4-yl)amino)ethoxy)phenoxy)ethyl)bicyclo[1.1.1]pentane-1-carboxamide]	C (“C” indicates maximum degradation < 50%)	< 50
Nc1nnc(-c2ccccc2O)cc1OCC12CC(C(=O)N3CCN(c4ccc5c(c4)C(=O)N(C4CCC(=O)NC4=O)C5=O)CC3)(C1)C2 (centres unmarked) [Compound 54, 5-(4-(3-(((3-amino-6-(2-hydroxyphenyl)pyridazin-4-yl)oxy)methyl)bicyclo[1.1.1]pentane-1-carbonyl)piperazin-1-yl)-2-(2,6-dioxopiperidin-3-yl)isoindoline-1,3-dione]	C (“C” indicates maximum degradation < 50%)	< 50
Nc1nnc(-c2ccccc2O)cc1OCC12CC(C(=O)N3CCC4(CC3)CC(Oc3ccc5c(c3)C(=O)N(C3CCC(=O)NC3=O)C5=O)C4)(C1)C2 (centres unmarked) [Compound 53, 5-((7-(3-(((3-amino-6-(2-hydroxyphenyl)pyridazin-4-yl)oxy)methyl)bicyclo[1.1.1]pentane-1-carbonyl)-7-azaspiro[3.5]nonan-2-yl)oxy)-2-(2,6-dioxopiperidin-3-yl)isoindoline-1,3-dione]	C (“C” indicates maximum degradation < 50%)	< 50
Cc1ncsc1-c1ccc(CNC(=O)[C@@H]2C[C@@H](O)CN2C(=O)[C@@H](NC(=O)CCCCC(=O)NC23CC(CCOc4cc(-c5ccccc5O)nnc4N)(C2)C3)C(C)(C)C)cc1 [Compound 43, N1-(3-(2-((3-amino-6-(2-hydroxyphenyl)pyridazin-4-yl)oxy)ethyl)bicyclo[1.1.1]pentan-1-yl)-N6-((S)-1-((2S,4R)-4-hydroxy-2-((4-(4-methylthiazol-5-yl)benzyl)carbamoyl)pyrrolidin-1-yl)-3,3-dimethyl-1-oxobutan-2-yl)adipamide]	A (“A” indicates maximum degradation ≥ 75%)	> 75
Nc1nnc(-c2ccccc2O)cc1OCC12CC(C(=O)NC3CCN(CCOc4ccc5c(c4)C(=O)N(C4CCC(=O)NC4=O)C5=O)CC3)(C1)C2 (centres unmarked) [Compound 80, 3-(((3-amino-6-(2-hydroxyphenyl)pyridazin-4-yl)oxy)methyl)-N-(1-(2-((2-(2,6-dioxopiperidin-3-yl)-1,3-dioxoisoindolin-5-yl)oxy)ethyl)piperidin-4-yl)bicyclo[1.1.1]pentane-1-carboxamide]	C (“C” indicates maximum degradation < 50%)	< 50
Nc1nnc(-c2ccccc2O)cc1OCC12CC(CNC(=O)CCCCCCCCNc3cccc4c3C(=O)N(C3CCC(=O)NC3=O)C4=O)(C1)C2 (centres unmarked) [Compound 7, N-[[3-([[3-amino-6-(2-hydroxyphenyl)pyridazin-4-yl]oxy]methyl)bicyclo[1.1.1]pentan-1-yl]methyl]-9-[[2-(2,6-dioxopiperidin-3-yl)-1,3-dioxoisoindol-4-yl]amino]nonanamide]	C (“C” indicates maximum degradation < 50%)	< 50
Nc1nnc(-c2ccccc2O)cc1OCC12CC(C(=O)NCCOCc3cccc(COCCOc4cccc5c4C(=O)N(C4CCC(=O)NC4=O)C5=O)c3)(C1)C2 (centres unmarked) [Compound 85, 3-(((3-amino-6-(2-hydroxyphenyl)pyridazin-4-yl)oxy)methyl)-N-(2-((3-((2-((2-(2,6-dioxopiperidin-3-yl)-1,3-dioxoisoindolin-4-yl)oxy)ethoxy)methyl)benzyl)oxy)ethyl)bicyclo[1.1.1]pentane-1-carboxamide]	C (“C” indicates maximum degradation < 50%)	< 50
CN(CCNC(=O)C12CC(COc3cc(-c4ccccc4O)nnc3N)(C1)C2)CCNc1cccc2c1C(=O)N(C1CCC(=O)NC1=O)C2=O (centres unmarked) [Compound 77, 3-(((3-amino-6-(2-hydroxyphenyl)pyridazin-4-yl)oxy)methyl)-N-(2-((2-((2-(2,6-dioxopiperidin-3-yl)-1,3-dioxoisoindolin-4-yl)amino)ethyl)(methyl)amino)ethyl)bicyclo[1.1.1]pentane-1-carboxamide]	C (“C” indicates maximum degradation < 50%)	< 50
Nc1nnc(-c2ccccc2O)cc1OCCC12CC(NC(=O)CCCCCCCCNc3ccc4c(c3)C(=O)N(C3CCC(=O)NC3=O)C4=O)(C1)C2 (centres unmarked) [Compound 25, N-[3-(2-[[3-amino-6-(2-hydroxyphenyl)pyridazin-4-yl]oxy]ethyl)bicyclo[1.1.1]pentan-1-yl]-9-[[2-(2,6-dioxopiperidin-3-yl)-1,3-dioxoisoindol-5-yl]amino]nonanamide]	C (“C” indicates maximum degradation < 50%)	< 50
Nc1nnc(-c2ccccc2O)cc1OCC12CC(CNC(=O)C3CC3CNC(=O)COc3cccc4c3C(=O)N(C3CCC(=O)NC3=O)C4=O)(C1)C2 (centres unmarked) [Compound 12, N-[[3-([[3-amino-6-(2-hydroxyphenyl)pyridazin-4-yl]oxy]methyl)bicyclo[1.1.1]pentan-1-yl]methyl]-2-[(2-[[2-(2,6-dioxopiperidin-3-yl)-1,3-dioxoisoindol-4-yl]oxy]acetamido)methyl]cyclopropane-1-carboxamide]	C (“C” indicates maximum degradation < 50%)	< 50
